Measurements reported in US8362022B2, “Selective subtype alpha 2 adrenergic agents and methods for use thereof” (Allergan, Inc., priority 2008, dated 2013).
Where two headings read alike, the source gives them in different places.

Columns and labels:
Type in all cases: cell-based
alpha 2B receptor = target: T1, alpha 2B receptor (Homo sapiens, UniProt P18089); experiment: RSAT assay (Receptor Selection and Amplification Technology), Alpha 2B; conditions: for Intrinsic Activity efficacy Alpha 2B: value in parentheses, ratio of maximal effect to that of brimonidine
T1 construct: expressed in transfected cells; host or cells: NIH-3T3
T1 sequence (P18089 1-450): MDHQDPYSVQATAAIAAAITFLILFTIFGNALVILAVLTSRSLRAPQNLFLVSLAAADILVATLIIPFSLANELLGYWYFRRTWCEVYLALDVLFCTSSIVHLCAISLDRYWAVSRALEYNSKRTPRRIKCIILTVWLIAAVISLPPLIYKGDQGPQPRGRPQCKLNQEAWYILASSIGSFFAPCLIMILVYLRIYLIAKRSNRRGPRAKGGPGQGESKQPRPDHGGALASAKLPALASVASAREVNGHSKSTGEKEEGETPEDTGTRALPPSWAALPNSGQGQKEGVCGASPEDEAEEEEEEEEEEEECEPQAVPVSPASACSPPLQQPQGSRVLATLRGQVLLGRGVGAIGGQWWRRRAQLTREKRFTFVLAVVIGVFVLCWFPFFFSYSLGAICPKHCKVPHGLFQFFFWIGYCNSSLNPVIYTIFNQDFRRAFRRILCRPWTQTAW
Procedure: (§1) The RSAT assay measures a receptor-mediated loss of contact inhibition that results in selective proliferation of receptor-containing cells in a mixed population of confluent cells. The increase in cell number is assessed with an appropriate transfected marker gene such as β-galactosidase, the activity of which can be easily measured in a 96-well format. Receptors that activate the G protein, Gq, elicit this response. Alpha 2 receptors, which normally couple to Gi, activate the RSAT response when coexpressed with a hybrid Gq protein that has a Gi receptor recognition domain, called Gq/i5.
(§2) NIH-3T3 cells are plated at a density of 2×10^6 cells in 15 cm dishes and maintained in Dulbecco's modified Eagle's medium supplemented with 10% calf serum. One day later, cells are cotransfected by calcium phosphate precipitation with mammalian expression plasmids encoding p-SV-β-galactosidase (5-10 μg), receptor (1-2 μg) and G protein (1-2 μg). 40 μg salmon sperm DNA may also be included in the transfection mixture. […] Cells are thawed and 100 μl added to 100 μL aliquots of various concentrations of drugs in triplicate in 96-well dishes. Incubations continue 72-96 hr at 37° C. After washing with phosphate-buffered saline, β-galactosidase enzyme activity is determined by adding 200 μL of the chromogenic substrate (consisting of 3.5 mM o-nitrophenyl-β-D-galactopyranoside and 0.5% nonidet P-40 in phosphate buffered saline), incubating overnight at 30° C. and measuring optical density at 420 nm. The absorbance is a measure of enzyme activity, which depends on cell number and reflects a receptor-mediated cell proliferation. The efficacy or intrinsic activity is calculated as a ratio of the maximal effect of the drug to the maximal effect of a standard full agonist for each receptor subtype. Brimonidine, the chemical structure of which is shown below, is used as the standard agonist for the alpha 2B and alpha 2C receptors. […] NA stands for “not active” at concentrations less than 3-10 micromolar.

Alpha 1A = target: T2, Alpha 1A (Homo sapiens, UniProt P35348); experiment: RSAT assay (Receptor Selection and Amplification Technology), Alpha 1A; conditions: value in parentheses, ratio of maximal effect of drug to maximal effect of standard full agonist
T2 sequence (P35348 1-466): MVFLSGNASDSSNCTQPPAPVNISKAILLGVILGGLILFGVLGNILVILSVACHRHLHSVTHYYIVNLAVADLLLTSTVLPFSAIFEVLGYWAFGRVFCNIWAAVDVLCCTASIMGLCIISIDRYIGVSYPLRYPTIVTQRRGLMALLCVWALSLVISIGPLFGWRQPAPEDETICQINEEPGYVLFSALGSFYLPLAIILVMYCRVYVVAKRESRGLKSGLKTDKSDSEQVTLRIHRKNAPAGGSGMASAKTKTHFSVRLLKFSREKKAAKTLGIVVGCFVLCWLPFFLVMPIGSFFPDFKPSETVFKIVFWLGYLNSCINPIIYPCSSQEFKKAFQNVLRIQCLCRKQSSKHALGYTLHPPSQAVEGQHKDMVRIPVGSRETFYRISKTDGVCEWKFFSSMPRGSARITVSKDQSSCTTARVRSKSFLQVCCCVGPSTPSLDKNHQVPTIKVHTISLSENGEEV
Procedure: as §1, §2

alpha 2C receptor = target: T3, alpha 2C receptor (Homo sapiens, UniProt P18825); experiment: RSAT assay (Receptor Selection and Amplification Technology), Alpha 2C; conditions: for Intrinsic Activity efficacy Alpha 2C: value in parentheses, ratio of maximal effect to that of brimonidine
T3 construct: expressed in transfected cells; host or cells: NIH-3T3
T3 sequence (P18825 1-462): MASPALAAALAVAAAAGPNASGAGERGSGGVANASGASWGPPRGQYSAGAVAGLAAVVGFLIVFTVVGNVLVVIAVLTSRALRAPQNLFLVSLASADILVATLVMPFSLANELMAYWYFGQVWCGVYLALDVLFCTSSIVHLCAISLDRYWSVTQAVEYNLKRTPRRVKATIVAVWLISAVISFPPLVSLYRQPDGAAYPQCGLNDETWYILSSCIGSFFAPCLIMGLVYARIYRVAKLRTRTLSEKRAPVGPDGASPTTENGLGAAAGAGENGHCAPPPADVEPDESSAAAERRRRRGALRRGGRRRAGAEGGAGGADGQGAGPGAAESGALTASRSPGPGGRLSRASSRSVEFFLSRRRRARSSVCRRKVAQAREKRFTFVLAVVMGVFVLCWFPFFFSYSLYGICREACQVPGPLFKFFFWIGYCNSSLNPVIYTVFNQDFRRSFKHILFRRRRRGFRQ
Procedure: as §1, §2

[1] = RSAT, Table 2, read-out: Potency nM (EC50) Alpha 2B
[2] = RSAT, transfected NIH-3T3 cells with Gq/i5, Table 1, read-out: potency nM (EC50) Alpha 2B

c1ccc(C(Cc2cccnc2)NC2=NCCN2)cc1 (stereo not shown)
EC50 (alpha 2B receptor; [1]): 16 nM | Intrinsic Activity efficacy Alpha 2B (alpha 2B receptor; RSAT, Table 2): 0.74

Cc1cccc(C(Cc2ccccn2)NC2=NCCO2)c1C (stereo not shown)
EC50 (alpha 2B receptor; [1]): 6.7 nM | Intrinsic Activity efficacy Alpha 2B (alpha 2B receptor; RSAT, Table 2): 0.93

Clc1cccc(C(Cc2cccnc2Br)NC2=NCCO2)c1 (stereo not shown)
EC50 (alpha 2B receptor; [1]): 1.3 nM | Intrinsic Activity efficacy Alpha 2B (alpha 2B receptor; RSAT, Table 2): 1.05

Clc1cccc(C(Cc2cccnc2Cl)NC2=NCCO2)c1 (stereo not shown)
EC50 (alpha 2B receptor; [1]): 0.48 nM | Intrinsic Activity efficacy Alpha 2B (alpha 2B receptor; RSAT, Table 2): 1.01

Cc1cccc(C(Cc2cccnc2Cl)NC2=NCCO2)c1 (stereo not shown)
EC50 (alpha 2B receptor; [1]): 0.06 nM | Intrinsic Activity efficacy Alpha 2B (alpha 2B receptor; RSAT, Table 2): 0.88

Fc1cccc(C(Cc2cccnc2Cl)NC2=NCCO2)c1 (stereo not shown)
EC50 (alpha 2B receptor; [1]): 0.09 nM | Intrinsic Activity efficacy Alpha 2B (alpha 2B receptor; RSAT, Table 2): 0.87

Clc1ncccc1CC(NC1=NCCO1)c1cccc(Br)c1 (stereo not shown)
EC50 (alpha 2B receptor; [1]): 0.14 nM | Intrinsic Activity efficacy Alpha 2B (alpha 2B receptor; RSAT, Table 2): 1.01

Fc1ncccc1CC(NC1=NCCO1)c1cccc(Cl)c1 (stereo not shown)
EC50 (alpha 2B receptor; [1]): 0.21 nM | Intrinsic Activity efficacy Alpha 2B (alpha 2B receptor; RSAT, Table 2): 0.81

Cc1cncc(CC(NC2=NCCO2)c2cccc(Cl)c2)c1 (stereo not shown)
EC50 (alpha 2B receptor; [1]): 4 nM | Intrinsic Activity efficacy Alpha 2B (alpha 2B receptor; RSAT, Table 2): 1.12

Cc1cncc(CC(NC2=NCCO2)c2cccc(C)c2)c1 (stereo not shown)
EC50 (alpha 2B receptor; [1]): 3 nM | Intrinsic Activity efficacy Alpha 2B (alpha 2B receptor; RSAT, Table 2): 1.1

c1ccc(C(Cc2cccnc2)NC2=NCCO2)cc1 (stereo not shown)
EC50 (alpha 2B receptor): 4.5 nM | Intrinsic Activity efficacy Alpha 2B (alpha 2B receptor; RSAT, Table 2): 0.76

COc1cccc(C(Cc2cccnc2)NC2=NCCO2)c1 (stereo not shown)
EC50 (alpha 2B receptor; [1]): 56 nM | Intrinsic Activity efficacy Alpha 2B (alpha 2B receptor; RSAT, Table 2): 0.65

Clc1cccc(C(Cc2cccnc2)NC2=NCCO2)c1Cl (stereo not shown)
EC50 (alpha 2B receptor; [1]): 5.6 nM | Intrinsic Activity efficacy Alpha 2B (alpha 2B receptor; RSAT, Table 2): 0.89

Cc1cccc(C(Cc2cccnc2)NC2=NCCO2)c1 (stereo not shown)
EC50 (alpha 2B receptor; [1]): 8.2 nM | Intrinsic Activity efficacy Alpha 2B (alpha 2B receptor; RSAT, Table 2): 1.24

Cc1c(Br)cncc1CC(NC1=NCCO1)c1cccc(Cl)c1 (stereo not shown)
EC50 (alpha 2B receptor; [1]): 1.9 nM | Intrinsic Activity efficacy Alpha 2B (alpha 2B receptor; RSAT, Table 2): 1.35

Cc1cccc(C(Cc2cncc(Br)c2C)NC2=NCCO2)c1 (stereo not shown)
EC50 (alpha 2B receptor; [1]): 2.7 nM | Intrinsic Activity efficacy Alpha 2B (alpha 2B receptor; RSAT, Table 2): 1.02

Cc1cncc(CC(NC2=NCCO2)c2cccc(Cl)c2)c1C (stereo not shown)
EC50 (alpha 2B receptor; [1]): 8.5 nM | Intrinsic Activity efficacy Alpha 2B (alpha 2B receptor; RSAT, Table 2): 0.9

Cc1cccc(C(Cc2cncc(C)c2C)NC2=NCCO2)c1 (stereo not shown)
EC50 (alpha 2B receptor; [1]): 3.9 nM | Intrinsic Activity efficacy Alpha 2B (alpha 2B receptor; RSAT, Table 2): 1.11

Cc1c(Cl)cncc1CC(NC1=NCCO1)c1cccc(Cl)c1 (stereo not shown)
EC50 (alpha 2B receptor; [1]): 5.6 nM | Intrinsic Activity efficacy Alpha 2B (alpha 2B receptor; RSAT, Table 2): 1.08

c1ccc(C(Cc2ccncc2)N=C2NCCN2)cc1 (stereo not shown) [Compound 3, N-(Imidazolidin-2-ylidene)-1-phenyl-2-(pyridin-4-yl)ethanamine]
Intrinsic Activity efficacy Alpha 1A (Alpha 1A): 0.63

Cc1cccc(C(Cc2ccncc2)N=C2NCCN2)c1C (stereo not shown) [Compound 5, 1-(2,3-Dimethylphenyl)-N-(imidazolidin-2-ylidene)-2-(pyridin-4-yl)ethanamine]
EC50 (alpha 2C receptor): 8.4 nM | Intrinsic Activity efficacy Alpha 2C (alpha 2C receptor; RSAT): 0.49 | EC50 (alpha 2B receptor): 3.1 nM | Intrinsic Activity efficacy Alpha 2B (alpha 2B receptor; RSAT, Table 1): 1.15

Clc1cccc(C(Cc2ccncc2)/N=C2/NCCO2)c1 (stereo not shown) [Compound 8, 1-(3-Chlorophenyl)-N-(oxazolidin-2-ylidene)-2-(pyridin-4-yl)ethanamine]
Intrinsic Activity efficacy Alpha 1A (Alpha 1A): 1.4

COc1ccccc1C(Cc1ccncc1)N=C1NCCN1 (stereo not shown) [Compound 10, N-(Imidazolidin-2-ylidene)-1-(2-methoxyphenyl)-2-(pyridin-4-yl)ethanamine]
Intrinsic Activity efficacy Alpha 1A (Alpha 1A): 1.0

c1ccc(C(Cc2cnccn2)/N=C2/NCCO2)cc1 (stereo not shown) [Compound 14, N-(Oxazolidin-2-ylidene)-1-phenyl-2-(pyrazin-2-yl)ethanamine]
Intrinsic Activity efficacy Alpha 1A (Alpha 1A): 1.19 | EC50 (alpha 2B receptor; [2]): 132 nM | Intrinsic Activity efficacy Alpha 2B (alpha 2B receptor; RSAT, Table 1): 1.0

c1ccc(C(Cc2cnccn2)N=C2NCCN2)cc1 (stereo not shown) [Compound 15, N-(Imidazolidin-2-ylidene)-1-phenyl-2-(pyrazin-2-yl)ethanamine]
Intrinsic Activity efficacy Alpha 1A (Alpha 1A): 0.72 | EC50 (alpha 2B receptor; [2]): 198 nM | Intrinsic Activity efficacy Alpha 2B (alpha 2B receptor; RSAT, Table 1): 0.84

Fc1c(Cl)cccc1C(Cc1ccncc1)/N=C1/NCCO1 (stereo not shown) [Compound 19, 1-(3-Chloro-2-fluorophenyl)-N-(oxazolidin-2-ylidene)-2-(pyridin-4-yl)ethanamine]
Intrinsic Activity efficacy Alpha 1A (Alpha 1A): 1.27

Fc1c(Cl)cccc1C(Cc1ccncc1)N=C1NCCN1 (stereo not shown) [Compound 20, 1-(3-Chloro-2-fluorophenyl)-N-(imidazolidin-2-ylidene)-2-(pyridin-4-yl)ethanamine]
Intrinsic Activity efficacy Alpha 1A (Alpha 1A): 0.6

Cc1cccc(C(Cc2cccnc2)/N=C2/NCCS2)c1C (stereo not shown) [Compound 22, 1-(2,3-Dimethylphenyl)-2-(pyridin-3-yl)-N-(thiazolidin-2-ylidene)ethanamine]
Intrinsic Activity efficacy Alpha 1A (Alpha 1A): 0.7

Fc1cccc(C(Cc2ccncc2)/N=C2/NCCS2)c1 (stereo not shown) [Compound 23, 1-(3-Fluorophenyl)-2-(pyridin-4-yl)-N-(thiazolidin-2-ylidene)ethanamine]
Intrinsic Activity efficacy Alpha 1A (Alpha 1A): 1.36

c1ccc([C@@H](Cc2ccncc2)N=C2NCCN2)cc1 [Compound 29, R—N-(imidazolidin-2-ylidene)-1-phenyl-2-(pyridin-4-yl)ethanamine]
EC50 (alpha 2C receptor; RSAT, transfected NIH-3T3 cells with Gq/i5, NA = not active at concentrations less than 10 micromolar, read-out: potency nM (EC50) Alpha 2C): 96 nM | Intrinsic Activity efficacy Alpha 2C (alpha 2C receptor; RSAT): 0.60 | Intrinsic Activity efficacy Alpha 1A (Alpha 1A): 0.60

Clc1cccc(C(Cc2ccncc2)N=C2NCCN2)c1Cl (stereo not shown) [Compound 32, 1-(2,3-Dichlorophenyl)-N-(imidazolidin-2-ylidene)-2-(pyridin-4-yl)ethanamine]
Intrinsic Activity efficacy Alpha 1A (Alpha 1A): 0.52 | EC50 (alpha 2B receptor; [2]): 1 nM | Intrinsic Activity efficacy Alpha 2B (alpha 2B receptor; RSAT, Table 1): 1.3
